Patent US20220380348A1, “AXL INHIBITOR FORMULATIONS” (Sumitomo Dainippon Pharma Oncology, Inc., priority 2019, published 2022)
Read-outs that look alike come from different tables or passages of the source.

Columns and labels:
[1] = Dynamic Vapor Sorption (DVS), hygroscopicity/water uptake; format: physicochemical; details: for Hygroscopicity: DVS up to 80% RH at 25° C.; for water uptake at 80% RH: DVS; for water uptake at 80% RH / Form change (FC) after DVS: 25° C.; for Form change (FC) after DVS: at the end of the DVS test, up to 80% RH
Experimental: The Dynamic Vapour Sorption studies were performed using a Surface Measurement Systems Ltd. DVS-1 No Video, equipment #2126. The sample is loaded into balance pan, typically 20-30 mg, and equilibrated at 0% RH. […] After completion of the sorption cycle, the sample was dried using the same method. The software used for data collection is DVSWin v3.01 No Video. Data analysis is performed using DVS Standard Analysis Suite v6.3.0 (Standard).

[2] = pH solubility in pH 2, 4, 6, 8 and 10 buffers; format: physicochemical; details: 37° C.; for Form change (FC) of residual solid, pH 4.0: pH 4.0 buffer; for Form change (FC) of residual solid, pH 6.0: pH 6.0 buffer; for Form change (FC) of residual solid, pH 8.0: pH 8.0 buffer; for Form change (FC) of residual solid, pH 10.0: pH 10.0 buffer
[3] = Pharmacokinetic testing of salt forms, oral dosing in rats (Example 5); format: in vivo; details: fasted male Sprague-Dawley rats, mean values
[4] = Kinetic solubility in bio-relevant buffers (FaSSIF, FeSSIF, SGF); format: physicochemical; details: 37° C.
[5] = Solid state stability at 40° C./75% RH for 3 weeks (HPLC purity, form change); format: physicochemical; details: for chemical stability (HPLC purity change, in words): 3 weeks at 40° C. and 75% relative humidity; for Form Change at 3 weeks / HPLC Purity at 3 weeks: 3 weeks under 40° C./75% RH; for Initial HPLC Purity: before storage
Experimental: Agilent 1260 HPLC was utilized and detailed chromatographic conditions for purity and solubility measurement are listed in Table 15 below.
The table below summarizes the characterization and solid state stability results observed for FB and Forms A, B, and D. Samples were prepared and data was obtained according to the procedures and processes listed above unless otherwise specified. More procedures, processes, and results are listed below in Table 16.

[6] = Moisture sorption isotherm of crystalline forms; format: physicochemical; details: for crystal form by XRPD after the moisture absorption/desorption cycle: XRPD before and after moisture sorption isotherm
[7] = Stability studies of crystalline forms (Table 17, stability by HPLC); format: physicochemical; details: for Stability by HPLC (in words): stability studies of Table 17; for Stability Results, 40° C.: stored at 40° C.; for Stability Results, 40° C./75% RH: stored at 40° C./75% RH; for Stability Results, 60° C.: stored at 60° C.; for Stability Results, 60° C./75% RH: stored at 60° C./75% RH
[8] = Salt screening, stability of salt forms; format: physicochemical; details: salt screening of Compound 1
Experimental: The salt screen was performed using the Crystal16 equipment.

[9] = dose mg/kg: Compound 1 18.2, Phosphate 14.3, Tartrate 18.7, Malate 18.6, Succinate 18.7, Benzenesulfonate 17.6

| SMILES | Form change (FC) of residual solid, pH 4.0 ([2]; 24 hours) | Form change (FC) of residual solid, pH 6.0 ([2]; 24 hours) | Form change (FC) of residual solid, pH 8.0 ([2]; 24 hours) | Form change (FC) of residual solid, pH 10.0 ([2]; 24 hours) | Form change (FC) of residual solid, FaSSIF ([4]; FaSSIF, 24 hours) | chemical stability (HPLC purity change, in words) [5] | Form Change at 3 weeks [5] | HPLC Purity at 3 weeks [5] [area %] | Initial HPLC Purity [5] [area %] | Moisture sorption isotherm (in words) [6] | crystal form by XRPD after the moisture absorption/desorption cycle [6] | Stability Results, Initial [7] [%] | Stability Results, 40° C. [7] [%] | Stability Results, 40° C./75% RH [7] [%] | Stability Results, 60° C. [7] [%] | Stability Results, 60° C./75% RH [7] [%] | also measured |
| --- | --- | --- | --- | --- | --- | --- | --- | --- | --- | --- | --- | --- | --- | --- | --- | --- | --- |
| CN1CCN(Cc2ccc(Nc3ncc(Cl)c(Nc4ccccc4S(=O)(=O)N(C)C)n3)cc2)CC1 [Compound 1, 2-((5-chloro-2-((4-((4-methylpiperazin-1-yl)methyl)phenyl)amino)pyrimidin-4-yl)amino)-N,N-dimethylbenzenesulfonamide] | Yes | No | No | No | No | no significant HPLC purity decrease | No | 98.6 | 98.3 | – | – | – | – | – | – | – | Hygroscopicity ([1]; listed as Free Base): Non-hygroscopic/; Hygroscopicity ([1]; listed as free base): non-hygroscopic; water uptake at 80% RH ([1]; listed as Free Base): 0.07%; water uptake at 80% RH ([1]; listed as free base): less than 0.2%; Form change (FC) after DVS ([1]; listed as Free Base): No; Form change (FC) after DVS ([1]; listed as free base): no form change; Form change (FC) of residual solid, pH 2.0 ([2]; pH 2.0 buffer, 24 hours): Yes; bioavailability ([3]; rat, plasma, 18.2 mg/kg, dose mg/kg: Compound 1 18.2, Phosphate 14.3, Tartrate 18.7, Malate 18.6, Succinate 18.7, Benzenesulfonate 17.6): 26.9%; AUC(0-t) ([3]; rat, plasma, 18.2 mg/kg, dose mg/kg: Compound 1 18.2, Phosphate 14.3, Tartrate 18.7, Malate 18.6, Succinate 18.7, Benzenesulfonate 17.6, read-out: AUC0-24 hours): 458 ng·h/mL; Cmax ([3]; rat, plasma, 18.2 mg/kg, dose mg/kg: Compound 1 18.2, Phosphate 14.3, Tartrate 18.7, Malate 18.6, Succinate 18.7, Benzenesulfonate 17.6, read-out: Cmax): 116 ng/mL; Tmax ([3]; rat, plasma, 18.2 mg/kg, dose mg/kg: Compound 1 18.2, Phosphate 14.3, Tartrate 18.7, Malate 18.6, Succinate 18.7, Benzenesulfonate 17.6, read-out: Tmax): 50 min; Form change (FC) of residual solid, FeSSIF ([4]; FeSSIF, 24 hours): No; Form change (FC) of residual solid, SGF ([4]; SGF, 24 hours): No |
| CN1CCN(Cc2ccc(Nc3ncc(Cl)c(Nc4ccccc4S(=O)(=O)N(C)C)n3)cc2)CC1.O=C(O)C(O)C(O)C(=O)O [Form D, 2-((5-chloro-2-((4-((4-methylpiperazin-1-yl)methyl)phenyl)amino)pyrimidin-4-yl)amino)-N,N-dimethylbenzenesulfonamide mono-tartrate salt] | Yes | Yes | Yes | Yes | Yes | no significant HPLC purity decrease | No | 98.3 | 98.8 | hygroscopic | transformed to the other forms | 98.4 | 98.2 | 98.4 | 98.2 | 98.2 | water uptake at 80% RH ([1]; mono-tartrate salt): 5.2%; Form change (FC) after DVS ([1]; mono-tartrate salt): form change observed and Yes; Kinetic solubility in FaSSIF compared between forms (in words) ([4]; FaSSIF): lower solubility than other Forms A and B; Stability by HPLC (in words) ([7]; listed as D, mono-tartrate salt): Stable; Stability by HPLC (in words) ([7]; mono-tartrate salt): No significant changes |
| CN1CCN(Cc2ccc(Nc3ncc(Cl)c(Nc4ccccc4S(=O)(=O)N(C)C)n3)cc2)CC1.O=C(O)C(O)C(O)C(=O)O.O=C(O)C(O)C(O)C(=O)O [Form A, 2-((5-chloro-2-((4-((4-methylpiperazin-1-yl)methyl)phenyl)amino)pyrimidin-4-yl)amino)-N,N-dimethylbenzenesulfonamide di-tartrate salt] | Yes | Yes | Yes | Yes | – | no significant HPLC purity decrease | No | 99.7 | 99.6 | hygroscopic | maintained | 99.3 | 99.3 | 99.3 | 99.3 | 99.3 | water uptake at 80% RH ([1]; di-tartrate salt): 4.6%; Form change (FC) after DVS [1]: No; pH solubility compared between polymorphs (in words) ([2]; pH 2, 4 and 6 buffers): higher solubility than other polymorphs; Stability by HPLC (in words) ([7]; di-tartrate salt): No significant changes; Stability by HPLC (in words) ([7]; listed as A, di-tartrate salt): Stable |
| CN1CCN(Cc2ccc(Nc3ncc(Cl)c(Nc4ccccc4S(=O)(=O)N(C)C)n3)cc2)CC1.O=C(O)C[C@H](O)C(=O)O [Malate Salt] | – | – | – | – | – | – | – | – | – | – | – | – | – | – | – | – | AUC0-24 hours [3, 9]: 515 ng·h/mL; Cmax [3, 9]: 134 ng/mL; Tmax [3, 9]: 30 min |
| CN1CCN(Cc2ccc(Nc3ncc(Cl)c(Nc4ccccc4S(=O)(=O)N(C)C)n3)cc2)CC1.O=P(O)(O)O [Phosphate Salt] | – | – | – | – | – | – | – | – | – | – | – | – | – | – | – | – | stability of the salt form (in words) [8]: undesirable stability characteristics |
